The nature of data set [1]: Acute Toxicity Test. Format: in vivo. The note with it: Crj:CD1 male mice, tail vein, observed for 7 days.
Data set [2] has as its target T1, Tg mouse intracerebral amyloid plaque (Homo sapiens, UniProt P05067).
T1 construct: from tissue; host or cells: brain of Tg mice (Tg2576 or APPswe2576/Tau JNPL3) after intravenous dosing
Description: Investigation of transgenic (Tg) mice with amyloid deposition in their brain (fluorescence microscopy of brain sections after intravenous administration). Format: in vivo. The note with it: Tg2576 mouse, 4 mg/kg intravenous; for Passage through the blood-brain barrier and binding to Tg mouse intracerebral amyloid plaque: 1 hour after administration.

Data set [3] can be described thus: Brain Permeability Test Through HPLC. Format: in vivo. The note with it: mice, 2 minutes after intravenous administration. As for the experimental part: A compound of the invention was intravenously administered to mice, and tested for its in-vivo brain permeability in the mice.
(1) Slc:ICR mice (by Nippon SLC) (body weight, 30 to 40 g; n=3) were used.
(2) A test compound was dissolved in a mixture of 5% Tween 80-5% ethyl alcohol-5% 1 N HCl-physiological saline water, and injected into the test mouse via its tail vein. Two minutes after the administration, the blood was collected from the test mouse under ether anesthesia via its abdominal aorta using a heparin-steeped syringe, and the brain material was collected from it.
(3) After collected, the blood was centrifuged at 4° C. and 14,000 rpm for 10 minutes, and the supernatant was stored at −80° C. as plasma. After collected, the brain material (including the cerebellum) was stored at −80° C.
(4) 0.3 ml of acetonitrile was added to 0.1 ml of the plasma, then vortexed, and centrifuged at 4° C. and under 10,000 G for 5 minutes. After centrifuged, 0.2 ml of the resulting supernatant was transferred into Mini-Uniprep (Whatman), then 0.2 ml of 20 mM phosphate buffer was added to it and filtered. 0.2 ml of the resulting filtrate was analyzed through HPLC (Shiseido Nanospace SI-2; pump, 3001; UV-VIS detector, 3002; column thermostat, 3004; fluorescence detector, 3013).
(5) 2 ml of methanol was added to the brain, homogenized, and centrifuged at 4° C. and 3000 or 4000 rpm for 10 minutes. After centrifuged, 500 μl of the resulting supernatant was diluted 10-fold with 20 mM phosphate buffer. (i) 2 to 3 ml of acetonitrile, (ii) 2 to 5 ml of methanol and (iii) 4 to 6 ml of ultra-pure water were led through a cartridge for solid-phase extraction (J. T. Baker Speedisk) in that order, and the 10-fold diluted supernatant solution was led through it. Via an empty syringe, air was applied to the cartridge for solid-phase extraction, two or three times to remove water, and then this was eluted with about 500 μl of acetonitrile or methanol, and the eluate was diluted 2-fold with 20 mM phosphate buffer. 0.2 ml of the resulting solution was analyzed through HPLC.
(6) The test compound content in the plasma and in the brain was determined relative to the dose of the compound (% ID (injected dose)/g or ml).

Data set [4] has as its target T2, Amyloid β protein 1-40 (Homo sapiens, UniProt P05067).
T2 construct: Amyloid β protein 1-40 (bought from Peptide Laboratory); purchased Peptide Laboratory
The data set is described as follows: Fluorescence Congo Red Method. The settings on record: 1 h, compound 10 μM, amyloid β protein 5 μM. Format: binding.

[5] abbreviates: Congo red 0.1 μM, read-out: Binding Percentage of Compound in the presence of 0.1 μM CR.
The mark [6] stands for this setting: Congo red 0.3 μM, read-out: Binding Percentage of Compound in the presence of 0.3 μM CR.
Setting [7] is: Congo red 1 μM, read-out: Binding Percentage of Compound in the presence of 1 μM CR.

Like-named read-outs stand apart in the source and are kept apart here.

T2 sequence (P05067 672-711): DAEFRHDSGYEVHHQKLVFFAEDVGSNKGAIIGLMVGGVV
T1 sequence (P05067 672-713 limits assumed): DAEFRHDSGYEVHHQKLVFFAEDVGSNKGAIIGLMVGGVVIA

Regarding `OCC(CF)Oc1ccc2nc(/C=C/c3cnc(N4CCOCC4)s3)oc2c1` (centres unmarked) [THK-702, (E)-2-[2-(2-morpholinothiazol-5-yl)ethenyl]-6-[(1-fluoromethyl-2-hydroxy)ethoxy]-benzoxazole], the “Maximum Permissible Dose (mg/kg, intravenous administration)” value (“Maximum Permissible Dose” below) in data set [1] is “≧10 mg/kg”. Also, in data set [2], the “Passage through the blood-brain barrier and binding to Tg mouse intracerebral amyloid plaque” value is “passed through the blood-brain barrier, and bound to the amyloid plaque of the Tg mouse”. Besides, in data set [2] (antibody 4G8), the “Correspondence of the binding site to the anti-Aβ antibody-stained site of the same section” value is reported as “completely corresponded to the anti-Aβ antibody-stained site”. Moreover, the “Brain Permeability: Brain” value in data set [3] was 5.1 % ID/g or ml. Also, the “Brain Permeability: Plasma” value in data set [3] is 2.7 % ID/g or ml. In addition, the activity at 10 µM in data set [4] (setting [5]) turned out to be 74.9%; in data set [4] (setting [6]), 37.3%; in data set [4] (setting [7]), 0.8%.

Turning to `CNc1ncc(/C=C/c2nc3ccc(OC(CO)CF)cc3o2)s1` (centres unmarked) [THK-761, (E)-6-[(1-fluoromethyl-2-hydroxy)ethoxy]-2-[2-[2-methylaminothiazol-5-yl]ethenyl]-benzoxazole], the “Maximum Permissible Dose” value in data set [1] was “≧10 mg/kg”. The activity at 10 µM in data set [4] (setting [5]) came out at 55.2%; in data set [4] (setting [6]), 21.6%; in data set [4] (setting [7]) it was 7%.

Take `CN(C)c1ncc(/C=C/c2nc3ccc(OC(CO)CF)cc3o2)s1` (centres unmarked) [THK-763, (E)-6-[(1-fluoromethyl-2-hydroxy)ethoxy]-2-[2-[2-dimethylamino-thiazol-5-yl]ethenyl]benzoxazole]: in data set [1], the “Maximum Permissible Dose” value is reported as “≧10 mg/kg”. For the same compound, the activity at 10 µM in data set [4] (setting [5]) amounted to 54.7%; in data set [4] (setting [6]), 22.9%; in data set [4] (setting [7]), 7.5%.

In the case of `OCC(CF)Oc1ccc2nc(/C=C/c3cnc(N4CCCC4)s3)oc2c1` (centres unmarked) [THK-752, (E)-6-[(1-fluoromethyl-2-hydroxy)ethoxy]-2-[2-[2-(pyrrolidin-1-yl)-thiazol-5-yl]ethenyl]benzoxazole], the “Maximum Permissible Dose” value in data set [1] is reported as “≧10 mg/kg”. Further, the “Brain Permeability: Brain” value in data set [3] was 6.7 % ID/g or ml. Also, the “Brain Permeability: Plasma” value in data set [3] was 1.9 % ID/g or ml. Further, the activity at 10 µM in data set [4] (setting [5]) came out at 50.4%; in data set [4] (setting [6]) it was 20.6%; in data set [4] (setting [7]), 11.3%.

In the case of `FCCOc1ccc2nc(/C=C/c3cnc(N4CCOCC4)s3)oc2c1` [THK-525, 6-(2-fluoro-ethoxy)-2-[2-(2-morpholin-4-yl-thiazol-5-yl)-vinyl]-benzoxazole], in data set [1], the “Maximum Permissible Dose” value is listed as “≧10 mg/kg”. For the same compound, the “Passage through the blood-brain barrier and binding to Tg mouse intracerebral amyloid plaque” value in data set [2] was “passed through the blood-brain barrier, and bound to the Tg mouse intracerebral amyloid plaque”. Also, the “Brain Permeability: Brain” value in data set [3] is on record as 7.9 % ID/g or ml. In data set [3], the “Brain Permeability: Plasma” value is given as 3.1 % ID/g or ml. The activity at 10 µM is 61.4% in data set [4] (setting [5]), 24.1% in data set [4] (setting [6]) and -6.4% in data set [4] (setting [7]).

The values are drawn from patent US7910579B2, “Benzoxazole derivatives” (Tohoku University, priority 2006, dated 2011).
